Test results taken from patent publication US9783527B2, “Indazole ureas and method of use” (AbbVie Inc., priority 2014, dated 2017).

How the values were obtained:
human Nav1.7 = human Nav1.7 (Homo sapiens (Human), UniProt Q15858); test: FRET-based membrane potential assay, recombinant human sodium channel Nav1.7; type: cell-based; conditions: HEK293 cells stably expressing recombinant human Nav1.7; depolarization with veratridine (EC80) + scorpion venom
Summary of the method: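 IC50 derived by four-parameter Hill fit of percent inhibition of depolarization, measured as peak F440-480/F565-625 ratio over baseline. Stable human Nav1.7 HEK293 cells, dye-loaded with CC2-DMPE and DiSBAC2(3)/VABSC-1 at room temperature, received compound 3 min ahead of veratridine (EC80) plus scorpion venom.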

human Nav1.8 = human Nav1.8 (Homo sapiens (Human), UniProt Q9Y5Y9); test: FRET-based membrane potential assay, recombinant human sodium channel Nav1.8; type: cell-based; conditions: HEK293 cells stably expressing recombinant human Nav1.8; depolarization with veratridine (EC80) + scorpion venom
Description: FRET-Based Membrane Potential Assays.
Recombinant, Human Sodium Channel, Nav1.8.
Two days prior to the experiment, frozen HEK293 cells stably expressing recombinant human Nav1.8 (Essen, Ann Arbor, Mich.) were quickly thawed and plated at 22,500 cells/well in growth medium [MEM (Invitrogen #11095) with 10% FBS (Invitrogen #10082), 1 mM sodium pyruvate (Invitrogen, #C11360), 10 units/mL penicillin/10 U/mL streptomycin/29.2 μg/mL glutamine ((PSG 1%, Invitrogen #10378), 400 μg/mL zeocin (Invitrogen #R250) in black-walled, clear-bottom 384-well poly-D-lysine-coated assay plates (Greiner Bio-One, Frickenhausen, Germany) and incubated in a humidified 5% CO2 incubator at 37° C. On the day of the assay, medium was removed by aspiration, and cells were washed with assay buffer [HBSS (Invitrogen, Carlsbad, Calif.) containing 20 mM HEPES (Invitrogen, Carlsbad, Calif.)]. After washing, 30 μL assay buffer containing the fluorescent voltage-sensor probe CC2-DMPE (Invitrogen, Carlsbad, Calif.) at 20 μM and 0.01% pluronic F-127 (Invitrogen, Carlsbad, Calif.) was added to the cells. Cells were incubated for 40 minutes at room temperature in the dark. Following the incubation, the cells were washed and 30 μL assay buffer containing 2.5 μM DiSBAC2(3) substrate (Invitrogen, Carlsbad, Calif.) and 0.5 mM VABSC-1 (Invitrogen, Carlsbad, Calif.) was added to the cells. The cells were incubated for 60 minutes at room temperature in the dark. Fluorescence readings were made using a FLIPR®^TETRA (Molecular Devices, Sunnyvale Calif.) equipped with voltage-sensor probe optics. The depolarizing agent, veratridine (Sigma-Aldrich, St. Louis, Mo.), was made up at 3× concentrations in assay buffer containing 1 mg/mL scorpion venom (SVqq, from Leiurus quinquestriatus; Sigma-Aldrich, St. Louis, Mo.). The assay agonist/opener concentration was determined each day using a 6-point veratridine concentration curve in duplicate, tested with three concentrations of tetracaine (0.1, 0.06, 0.01 μM all in 0.03% dimethyl sulfoxide) and 0.03% dimethyl sulfoxide control in assay buffer. […] Test compounds in the daughter plate were diluted to (˜3×) solutions in assay buffer immediately before assaying. Using the FLIPR®^TETRA, 20 μL of the (3×) compound solutions were first added to the cells, then 20 μL of depolarizing solution (3×EC80 veratridine+SVqq) were added 3 minutes later to activate the channel. Changes in fluorescence were measured at wavelengths of 440-480 nm and 565-625 nm over the course of the experimental run. Membrane depolarization was expressed as a ratio of the maximum F440-480 nm/F565-625 nm reading above average baseline F440-480 nm/F565-625 nm reading. IC50 values were calculated from curve fits of the ratio data using a four-parameter logistic Hill equation (Accelrys Assay Explorer 3.3 Client, Accelrys, San Diego, Calif.) with percent inhibition plotted against compound concentration.

human Nav1.7, sequence (Q15858 whole entry): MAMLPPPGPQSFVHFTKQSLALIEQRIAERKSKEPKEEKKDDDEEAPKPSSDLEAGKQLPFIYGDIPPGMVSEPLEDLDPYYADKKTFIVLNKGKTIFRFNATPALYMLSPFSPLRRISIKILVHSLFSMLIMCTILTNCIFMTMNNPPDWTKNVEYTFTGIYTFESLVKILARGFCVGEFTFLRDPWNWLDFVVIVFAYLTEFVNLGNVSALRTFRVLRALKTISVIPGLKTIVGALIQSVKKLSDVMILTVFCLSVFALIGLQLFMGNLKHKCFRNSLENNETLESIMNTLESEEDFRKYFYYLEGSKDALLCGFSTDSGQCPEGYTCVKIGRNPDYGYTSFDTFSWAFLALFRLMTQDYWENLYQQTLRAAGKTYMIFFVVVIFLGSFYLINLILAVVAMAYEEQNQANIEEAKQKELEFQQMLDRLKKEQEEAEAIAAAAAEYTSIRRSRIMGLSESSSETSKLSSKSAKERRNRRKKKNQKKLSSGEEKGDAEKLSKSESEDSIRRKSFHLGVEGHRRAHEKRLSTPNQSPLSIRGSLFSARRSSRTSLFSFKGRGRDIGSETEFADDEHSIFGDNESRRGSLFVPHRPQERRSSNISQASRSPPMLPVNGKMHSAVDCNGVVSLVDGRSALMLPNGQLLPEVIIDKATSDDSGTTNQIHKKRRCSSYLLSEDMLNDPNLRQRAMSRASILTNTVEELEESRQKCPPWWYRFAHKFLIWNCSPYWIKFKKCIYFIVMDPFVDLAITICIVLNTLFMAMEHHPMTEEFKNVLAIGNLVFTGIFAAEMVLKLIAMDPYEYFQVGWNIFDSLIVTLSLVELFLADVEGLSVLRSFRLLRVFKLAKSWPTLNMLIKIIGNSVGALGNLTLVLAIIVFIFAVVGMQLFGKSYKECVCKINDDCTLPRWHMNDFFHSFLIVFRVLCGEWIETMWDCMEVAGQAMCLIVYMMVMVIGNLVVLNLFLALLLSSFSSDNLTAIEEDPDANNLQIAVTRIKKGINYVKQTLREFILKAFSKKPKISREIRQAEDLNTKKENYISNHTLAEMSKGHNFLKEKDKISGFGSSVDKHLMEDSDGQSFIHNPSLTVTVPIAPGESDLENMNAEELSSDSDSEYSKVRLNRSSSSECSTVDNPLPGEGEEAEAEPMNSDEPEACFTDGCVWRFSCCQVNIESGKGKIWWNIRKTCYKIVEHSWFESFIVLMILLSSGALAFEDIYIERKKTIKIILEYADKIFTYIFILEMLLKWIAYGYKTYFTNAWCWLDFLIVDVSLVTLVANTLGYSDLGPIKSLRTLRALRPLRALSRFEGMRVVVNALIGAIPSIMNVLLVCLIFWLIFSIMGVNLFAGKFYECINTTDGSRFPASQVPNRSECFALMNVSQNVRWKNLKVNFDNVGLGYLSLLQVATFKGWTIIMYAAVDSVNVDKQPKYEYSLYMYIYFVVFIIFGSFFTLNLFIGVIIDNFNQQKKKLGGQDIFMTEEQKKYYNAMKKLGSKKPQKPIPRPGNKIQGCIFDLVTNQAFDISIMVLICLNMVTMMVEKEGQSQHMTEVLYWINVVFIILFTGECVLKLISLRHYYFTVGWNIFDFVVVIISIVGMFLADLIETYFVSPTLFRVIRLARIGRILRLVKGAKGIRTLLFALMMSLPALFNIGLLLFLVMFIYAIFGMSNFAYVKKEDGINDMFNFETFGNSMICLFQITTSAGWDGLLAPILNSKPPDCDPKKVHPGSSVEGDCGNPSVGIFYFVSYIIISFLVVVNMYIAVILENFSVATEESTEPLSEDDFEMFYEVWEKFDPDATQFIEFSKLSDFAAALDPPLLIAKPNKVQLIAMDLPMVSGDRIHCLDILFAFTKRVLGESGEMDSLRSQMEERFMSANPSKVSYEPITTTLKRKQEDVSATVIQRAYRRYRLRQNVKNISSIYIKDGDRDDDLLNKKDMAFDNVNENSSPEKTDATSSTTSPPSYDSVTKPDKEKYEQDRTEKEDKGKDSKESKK
human Nav1.8, sequence (Q9Y5Y9 whole entry): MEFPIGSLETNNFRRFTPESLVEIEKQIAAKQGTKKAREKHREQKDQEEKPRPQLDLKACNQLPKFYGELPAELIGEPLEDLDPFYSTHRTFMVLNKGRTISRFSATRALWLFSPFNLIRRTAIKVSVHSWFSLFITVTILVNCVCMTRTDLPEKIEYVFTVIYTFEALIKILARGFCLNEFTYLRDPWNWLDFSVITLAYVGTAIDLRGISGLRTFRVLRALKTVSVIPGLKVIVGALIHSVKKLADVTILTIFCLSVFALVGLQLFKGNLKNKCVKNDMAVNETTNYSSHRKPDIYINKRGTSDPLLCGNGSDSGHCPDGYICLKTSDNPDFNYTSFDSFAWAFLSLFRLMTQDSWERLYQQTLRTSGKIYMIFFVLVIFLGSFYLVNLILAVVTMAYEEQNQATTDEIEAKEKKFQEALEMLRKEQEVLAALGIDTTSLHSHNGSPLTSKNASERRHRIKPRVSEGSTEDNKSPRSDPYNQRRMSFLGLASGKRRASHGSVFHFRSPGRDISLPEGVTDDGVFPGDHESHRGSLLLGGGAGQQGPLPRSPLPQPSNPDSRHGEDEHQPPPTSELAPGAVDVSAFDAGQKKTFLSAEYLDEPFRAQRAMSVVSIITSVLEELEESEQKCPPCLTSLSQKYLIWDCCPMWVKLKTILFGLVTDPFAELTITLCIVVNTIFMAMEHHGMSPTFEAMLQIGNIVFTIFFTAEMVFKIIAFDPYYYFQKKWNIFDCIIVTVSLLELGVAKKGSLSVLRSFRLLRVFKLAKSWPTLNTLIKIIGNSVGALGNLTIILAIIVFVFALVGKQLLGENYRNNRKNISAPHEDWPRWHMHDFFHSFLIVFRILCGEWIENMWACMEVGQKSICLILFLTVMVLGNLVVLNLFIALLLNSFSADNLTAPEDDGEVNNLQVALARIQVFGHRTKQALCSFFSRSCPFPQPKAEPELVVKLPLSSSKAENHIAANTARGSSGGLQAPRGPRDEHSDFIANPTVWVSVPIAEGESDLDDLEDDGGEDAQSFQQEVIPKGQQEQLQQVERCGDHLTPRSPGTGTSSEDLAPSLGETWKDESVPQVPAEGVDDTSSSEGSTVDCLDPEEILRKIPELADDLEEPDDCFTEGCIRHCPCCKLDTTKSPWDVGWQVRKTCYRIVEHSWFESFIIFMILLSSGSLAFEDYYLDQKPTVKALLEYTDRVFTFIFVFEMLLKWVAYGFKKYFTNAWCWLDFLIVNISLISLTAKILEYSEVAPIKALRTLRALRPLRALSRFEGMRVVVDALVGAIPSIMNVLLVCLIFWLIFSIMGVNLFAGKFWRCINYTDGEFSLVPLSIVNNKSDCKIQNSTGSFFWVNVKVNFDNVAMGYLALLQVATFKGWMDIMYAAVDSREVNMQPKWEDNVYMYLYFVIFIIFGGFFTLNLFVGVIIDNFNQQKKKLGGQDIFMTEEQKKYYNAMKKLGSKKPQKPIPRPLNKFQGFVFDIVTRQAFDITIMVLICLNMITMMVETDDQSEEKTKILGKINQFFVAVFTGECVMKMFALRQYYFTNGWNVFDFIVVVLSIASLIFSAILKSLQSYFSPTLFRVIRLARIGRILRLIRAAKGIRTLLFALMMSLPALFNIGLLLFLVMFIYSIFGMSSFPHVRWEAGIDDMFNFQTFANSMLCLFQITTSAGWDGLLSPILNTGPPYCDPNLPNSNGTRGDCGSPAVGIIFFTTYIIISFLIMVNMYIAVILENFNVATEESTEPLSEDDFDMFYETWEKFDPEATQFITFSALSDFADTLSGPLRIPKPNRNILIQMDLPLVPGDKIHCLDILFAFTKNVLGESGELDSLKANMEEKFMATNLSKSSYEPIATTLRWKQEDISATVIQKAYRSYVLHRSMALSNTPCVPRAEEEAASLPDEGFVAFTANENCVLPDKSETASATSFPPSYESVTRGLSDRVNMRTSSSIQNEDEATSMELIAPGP

Row | Compound | IC50 (human Nav1.7) [nM] | IC50 (human Nav1.8) [nM]
1 | O=C(CN1CCN(c2cccc3c2cnn3-c2ccccc2F)C1=O)NC1COC1 [Example 321, 2-{3-[1-(2-fluorophenyl)-1H-indazol-4-yl]-2-oxoimidazolidin-1-yl}-N-(oxetan-3-yl)acetamide] | 5790 | 5670
2 | O=C(CN1CCN(c2cccc3c2cnn3-c2ccccc2F)C1=O)NC1CCC1 [Example 322, N-cyclobutyl-2-{3-[1-(2-fluorophenyl)-1H-indazol-4-yl]-2-oxoimidazolidin-1-yl}acetamide] | 973 | 1890
3 | O=C(CN1CCN(c2cccc3c2cnn3-c2ccccc2F)C1=O)NC1CCCC1 [Example 323, N-cyclopentyl-2-{3-[1-(2-fluorophenyl)-1H-indazol-4-yl]-2-oxoimidazolidin-1-yl}acetamide] | 1460 | 695
4 | O=C(CN1CCN(c2cccc3c2cnn3-c2ccccc2F)C1=O)NC1CCCCC1 [Example 324, N-cyclohexyl-2-{3-[1-(2-fluorophenyl)-1H-indazol-4-yl]-2-oxoimidazolidin-1-yl}acetamide] | 1410 | 526
5 | CC(=O)C1CN(C(=O)CN2CCN(c3cccc4c3cnn4-c3ccccc3F)C2=O)C1 [Example 325, 1-[2-(3-acetylazetidin-1-yl)-2-oxoethyl]-3-[1-(2-fluorophenyl)-1H-indazol-4-yl]imidazolidin-2-one] | 3120 | 3860
6 | O=C(/C=C/N1CCN(c2cccc3c2cnn3-c2ccccc2F)C1=O)N1CC[C@H](F)C1 [Example 327, 1-[1-(2-fluorophenyl)-1H-indazol-4-yl]-3-{(1E)-3-[(3S)-3-fluoropyrrolidin-1-yl]-3-oxoprop-1-en-1-yl}imidazolidin-2-one] | 2890 | 678
7 | O=C(CN1CCN(c2cccc3c2cnn3-c2ccccc2F)C1=O)N1CC(C(F)(F)F)C1 [Example 329, 1-[1-(2-fluorophenyl)-1H-indazol-4-yl]-3-{2-oxo-2-[3-(trifluoromethyl)azetidin-1-yl]ethyl}imidazolidin-2-one] | 2720 | 3130
8 | CC(C)O[C@H]1CCCC[C@@H]1N1CCN(c2cccc3c2cnn3-c2ccccc2F)C1=O [Example 331, 1-[1-(2-fluorophenyl)-1H-indazol-4-yl]-3-[(1S,2S)-2-isopropoxycyclohexyl]imidazolidin-2-one] | 1440 | 3650
9 | O=C(CN1CCN(c2cccc3c2cnn3-c2ccccc2F)C1=O)N[C@@H]1CCC[C@@H]1O [Example 332, 2-{3-[1-(2-fluorophenyl)-1H-indazol-4-yl]-2-oxoimidazolidin-1-yl}-N-[(1R,2S)-2-hydroxycyclopentyl]acetamide] | 5100 | 2640
10 | O=C(CN1CCN(c2cccc3c2cnn3-c2ccccc2F)C1=O)N[C@H]1CCC[C@@H]1OCc1ccccc1 [Example 334, N-[(1S,2S)-2-(benzyloxy)cyclopentyl]-2-{3-[1-(2-fluorophenyl)-1H-indazol-4-yl]-2-oxoimidazolidin-1-yl}acetamide] | 1930 | 657
11 | O=C(CN1CCN(c2cccc3c2cnn3-c2ccccc2F)C1=O)N[C@@H]1CCC[C@H]1OCc1ccccc1 [Example 335, N-[(1R,2R)-2-(benzyloxy)cyclopentyl]-2-{3-[1-(2-fluorophenyl)-1H-indazol-4-yl]-2-oxoimidazolidin-1-yl}acetamide] | 1110 | 501
12 | CC(C)COC1COCC1N1CCN(c2cccc3c2cnn3-c2ccccc2F)C1=O (centres unmarked) [Example 336, 1-[1-(2-fluorophenyl)-1H-indazol-4-yl]-3-(4-isobutoxytetrahydrofuran-3-yl)imidazolidin-2-one] | 2140 | 867
13 | CC(C)CO[C@H]1CCC[C@H]1NC(=O)CN1CCN(c2cccc3c2cnn3-c2ccccc2F)C1=O [Example 337, 2-{3-[1-(2-fluorophenyl)-1H-indazol-4-yl]-2-oxoimidazolidin-1-yl}-N-[(1R,2S)-2-isobutoxycyclopentyl]acetamide] | 2240 | 846
14 | O=C(CN1CCN(c2cccc3c2cnn3-c2ccc(Cl)cc2)C1=O)N1CC[C@H](F)C1 [Example 338, 1-[1-(4-chlorophenyl)-1H-indazol-4-yl]-3-{2-[(3S)-3-fluoropyrrolidin-1-yl]-2-oxoethyl}imidazolidin-2-one] | 1060 | 2620
15 | CC(C)(C)NC(=O)CN1CCN(c2cccc3c2cnn3-c2ccccc2F)C1=O [Example 339, N-tert-butyl-2-{3-[1-(2-fluorophenyl)-1H-indazol-4-yl]-2-oxoimidazolidin-1-yl}acetamide] | 5670 | 2670
16 | O=C(CN1CCN(c2cccc3c2cnn3-c2ccccc2F)C1=O)NC1CCCC(F)(F)C1 (centres unmarked) [Example 340, N-(3,3-difluorocyclohexyl)-2-{3-[1-(2-fluorophenyl)-1H-indazol-4-yl]-2-oxoimidazolidin-1-yl}acetamide] | 2640 | 637
17 | O=C(CN1CCN(c2cccc3c2cnn3-c2ccccc2F)C1=O)NC1CCC(F)(F)C1 (centres unmarked) [Example 341, N-(3,3-difluorocyclopentyl)-2-{3-[1-(2-fluorophenyl)-1H-indazol-4-yl]-2-oxoimidazolidin-1-yl}acetamide] | 2900 | 991
18 | O=C(CN1CCN(c2cccc3c2cnn3-c2ccccc2F)C1=O)N1C[C@H]2CCC[C@H]2C1 [Example 342, 1-[1-(2-fluorophenyl)-1H-indazol-4-yl]-3-{2-[(3aR,6aS)-hexahydrocyclopenta[c]pyrrol-2(1H)-yl]-2-oxoethyl}imidazolidin-2-one] | 2210 | 746
19 | O=C(CN1CCN(c2cccc3c2cnn3-c2ccccc2F)C1=O)NCCC(F)(F)F [Example 343, 2-{3-[1-(2-fluorophenyl)-1H-indazol-4-yl]-2-oxoimidazolidin-1-yl}-N-(3,3,3-trifluoropropyl)acetamide] | 3060 | 1270
20 | NC(=O)[C@@H](Cc1ccccc1)NC(=O)CN1CCN(c2cccc3c2cnn3-c2ccccc2F)C1=O [Example 345, Nα-({3-[1-(2-fluorophenyl)-1H-indazol-4-yl]-2-oxoimidazolidin-1-yl}acetyl)-D-phenylalaninamide] | 6060 | 1780
21 | CC(C)[C@H](NC(=O)CN1CCN(c2cccc3c2cnn3-c2ccccc2F)C1=O)C(=O)NC(C)(C)C [Example 346, N-tert-butyl-N^2-({3-[1-(2-fluorophenyl)-1H-indazol-4-yl]-2-oxoimidazolidin-1-yl}acetyl)-L-valinamide] | 2040 | 960
22 | O=C(CN1CCN(c2cccc3c2cnn3-c2ccccc2F)C1=O)NC1CCCC1(F)F (centres unmarked) [Example 347, N-(2,2-difluorocyclopentyl)-2-{3-[1-(2-fluorophenyl)-1H-indazol-4-yl]-2-oxoimidazolidin-1-yl}acetamide] | 3450 | 1290
23 | O=C(CN1CCN(c2cccc3c2cnn3-c2cc(Cl)cc(Cl)c2)C1=O)N1CC[C@H](F)C1 [Example 348, 1-[1-(3,5-dichlorophenyl)-1H-indazol-4-yl]-3-{2-[(3S)-3-fluoropyrrolidin-1-yl]-2-oxoethyl}imidazolidin-2-one] | 13400 | 3260
24 | O=C1CC(NC(=O)CN2CCN(c3cccc4c3cnn4-c3ccccc3F)C2=O)C1 [Example 349, 2-{3-[1-(2-fluorophenyl)-1H-indazol-4-yl]-2-oxoimidazolidin-1-yl}-N-(3-oxocyclobutyl)acetamide] | 15100 | 7570
25 | O=C(CN1CCN(c2cccc3c2cnn3-c2ccccc2F)C1=O)NC1CC(O)C1 (centres unmarked) [Example 350, 2-{3-[1-(2-fluorophenyl)-1H-indazol-4-yl]-2-oxoimidazolidin-1-yl}-N-(3-hydroxycyclobutyl)acetamide] | 9220 | 12300
